Activity calls are given as the source filed them.
Experiments:
HEK293 = experiment: EBV LMP1 TES2 canonical NF-kB signalling blockers – cell-based, HEK293, luciferase, cherry-pick, dose response (AID 588343); format: functional; settings: Homo sapiens
cells = format: functional, cell-based
[1] = biological target: T1, Nuclear receptor subfamily 0 group B member 1 (Homo sapiens, UniProt P51843); format: functional, cell-based;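 further: HEK293T cells transfected with SF-1 and DAX-1 plus StAR promoter luciferase reporter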
T1 sequence (P51843 whole entry): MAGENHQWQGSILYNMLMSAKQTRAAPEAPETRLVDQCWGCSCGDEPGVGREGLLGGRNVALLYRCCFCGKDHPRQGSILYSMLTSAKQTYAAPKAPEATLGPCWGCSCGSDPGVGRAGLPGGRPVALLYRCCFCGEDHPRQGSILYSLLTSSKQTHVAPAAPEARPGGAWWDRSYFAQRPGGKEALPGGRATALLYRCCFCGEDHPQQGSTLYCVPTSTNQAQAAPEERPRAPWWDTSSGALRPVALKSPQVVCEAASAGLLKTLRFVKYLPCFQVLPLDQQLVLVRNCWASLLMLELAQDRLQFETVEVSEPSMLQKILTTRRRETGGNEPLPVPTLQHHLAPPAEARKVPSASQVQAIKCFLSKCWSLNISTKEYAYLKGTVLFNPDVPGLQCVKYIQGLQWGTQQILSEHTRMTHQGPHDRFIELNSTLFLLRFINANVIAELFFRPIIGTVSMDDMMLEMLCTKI

[2] = NIH-3T3 fibroblast cytotoxicity, dose response, cytotoxicity control, cell-based, fluorescence, Alamar Blue, secondary assay (AID 2327); format: functional;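 further: NIH-3T3 mouse fibroblasts cultured with fluconazole at 8 µg/mL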
[3] = fluconazole-exposed Candida albicans growth modulators – fluorescence, retest, confirmation (AID 2467); format: functional, cell-based
[4] = biological target: Luciferin 4-monooxygenase (Photinus pyralis, UniProt P08659); experiment: inhibition of purified Photinus pyralis luciferase – biochemical, luminescence, dose response (AID 1891)
Sequence of Luciferin 4-monooxygenase (P08659 whole entry): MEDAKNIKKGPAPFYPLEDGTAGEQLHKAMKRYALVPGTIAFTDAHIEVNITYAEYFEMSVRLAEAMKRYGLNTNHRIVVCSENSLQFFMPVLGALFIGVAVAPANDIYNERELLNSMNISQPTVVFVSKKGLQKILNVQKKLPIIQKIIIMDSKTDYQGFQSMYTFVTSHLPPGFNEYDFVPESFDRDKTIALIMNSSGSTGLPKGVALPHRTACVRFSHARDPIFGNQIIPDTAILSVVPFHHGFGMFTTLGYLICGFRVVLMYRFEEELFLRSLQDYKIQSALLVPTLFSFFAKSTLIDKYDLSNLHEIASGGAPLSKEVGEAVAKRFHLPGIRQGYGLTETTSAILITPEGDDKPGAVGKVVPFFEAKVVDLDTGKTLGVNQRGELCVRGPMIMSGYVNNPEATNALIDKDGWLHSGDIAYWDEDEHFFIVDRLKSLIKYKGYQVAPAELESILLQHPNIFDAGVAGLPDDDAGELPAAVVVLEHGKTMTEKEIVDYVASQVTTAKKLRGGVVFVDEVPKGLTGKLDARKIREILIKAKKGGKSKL

[5] = Luminescence Cell-Based Dose Confirmation HTS to Identify Inhibitors of Platelet Dense Granule Release. [Related pubchem assays: 1663 (Primary HTS), 1678 (Summary of Project)]; format: functional
[6] = Luminescence Cell-Based Dose Retest to Confirm Inhibitors of Cancer Stem Cells. [Related pubchem assays (depositor defined):AID2717, AID2721]; format: functional; settings: Homo sapiens
Paired box protein Pax-8 = Paired box protein Pax-8 (Homo sapiens, UniProt Q06710); experiment: PAX8 transcriptional activity inhibition in RMG-I – RMG-I cells, luciferase, cherry-pick, dose response (AID 687027); format: functional, cell-based;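 further: luciferase reporter driven by Pax8 target thyroperoxidase promoter measured by SteadyGlo luminescence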
Sequence of Paired box protein Pax-8 (Q06710 whole entry): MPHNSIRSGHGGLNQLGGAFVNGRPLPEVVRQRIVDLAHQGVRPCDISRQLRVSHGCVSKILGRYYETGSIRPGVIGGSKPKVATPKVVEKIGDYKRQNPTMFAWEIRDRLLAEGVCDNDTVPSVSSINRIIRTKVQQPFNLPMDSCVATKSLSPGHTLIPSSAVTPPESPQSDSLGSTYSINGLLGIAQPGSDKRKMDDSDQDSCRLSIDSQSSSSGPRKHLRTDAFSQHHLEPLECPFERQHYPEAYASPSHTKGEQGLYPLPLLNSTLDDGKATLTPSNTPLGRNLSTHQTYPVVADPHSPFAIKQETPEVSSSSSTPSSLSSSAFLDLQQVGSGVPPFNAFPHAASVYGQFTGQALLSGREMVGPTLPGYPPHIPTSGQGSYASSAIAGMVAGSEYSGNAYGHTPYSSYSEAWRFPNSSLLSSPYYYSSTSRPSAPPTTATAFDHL

[7] = biological target: T2, Replicative DNA helicase DnaB (Mycobacterium tuberculosis, UniProt P9WMR3); experiment: DnaB intein splicing inhibitors, dose response, biochemical, cell-free fluorescence (AID 449749); format: functional
T2 sequence (P9WMR3 whole entry): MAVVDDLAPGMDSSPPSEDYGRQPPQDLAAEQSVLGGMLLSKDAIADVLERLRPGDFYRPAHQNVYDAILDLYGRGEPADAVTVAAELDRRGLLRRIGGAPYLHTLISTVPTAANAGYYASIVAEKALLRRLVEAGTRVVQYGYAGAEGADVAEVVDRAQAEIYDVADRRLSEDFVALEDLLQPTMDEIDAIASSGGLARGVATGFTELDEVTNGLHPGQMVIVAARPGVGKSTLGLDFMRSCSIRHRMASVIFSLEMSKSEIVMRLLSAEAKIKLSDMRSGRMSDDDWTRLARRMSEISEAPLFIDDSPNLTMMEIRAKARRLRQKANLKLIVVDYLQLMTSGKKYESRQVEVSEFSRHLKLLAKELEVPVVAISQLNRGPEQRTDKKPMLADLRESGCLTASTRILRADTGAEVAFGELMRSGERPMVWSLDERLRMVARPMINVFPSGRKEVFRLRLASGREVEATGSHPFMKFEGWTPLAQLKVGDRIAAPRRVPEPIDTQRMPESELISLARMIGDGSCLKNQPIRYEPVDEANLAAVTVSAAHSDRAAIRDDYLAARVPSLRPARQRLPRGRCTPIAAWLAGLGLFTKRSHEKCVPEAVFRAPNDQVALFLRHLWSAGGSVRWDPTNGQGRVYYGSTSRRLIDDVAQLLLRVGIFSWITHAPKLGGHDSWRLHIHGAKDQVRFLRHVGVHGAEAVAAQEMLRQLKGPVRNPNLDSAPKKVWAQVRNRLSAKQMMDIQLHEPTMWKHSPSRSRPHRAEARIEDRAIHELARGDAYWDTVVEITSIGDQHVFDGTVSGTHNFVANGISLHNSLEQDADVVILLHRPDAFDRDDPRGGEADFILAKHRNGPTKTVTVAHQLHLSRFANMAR

Protein RecA = biological target: T3, Protein RecA (Mycobacterium tuberculosis, UniProt P9WHJ3); experiment: Fluorescence Cell-Free Homogeneous Dose Retest to Identify Inhibitors of RecA-Intein Splicing Activity. [Related pubchem assays (depositor defined):AID2097, AID2223, AID489010, AID492950]; format: functional
T3 sequence (P9WHJ3 whole entry): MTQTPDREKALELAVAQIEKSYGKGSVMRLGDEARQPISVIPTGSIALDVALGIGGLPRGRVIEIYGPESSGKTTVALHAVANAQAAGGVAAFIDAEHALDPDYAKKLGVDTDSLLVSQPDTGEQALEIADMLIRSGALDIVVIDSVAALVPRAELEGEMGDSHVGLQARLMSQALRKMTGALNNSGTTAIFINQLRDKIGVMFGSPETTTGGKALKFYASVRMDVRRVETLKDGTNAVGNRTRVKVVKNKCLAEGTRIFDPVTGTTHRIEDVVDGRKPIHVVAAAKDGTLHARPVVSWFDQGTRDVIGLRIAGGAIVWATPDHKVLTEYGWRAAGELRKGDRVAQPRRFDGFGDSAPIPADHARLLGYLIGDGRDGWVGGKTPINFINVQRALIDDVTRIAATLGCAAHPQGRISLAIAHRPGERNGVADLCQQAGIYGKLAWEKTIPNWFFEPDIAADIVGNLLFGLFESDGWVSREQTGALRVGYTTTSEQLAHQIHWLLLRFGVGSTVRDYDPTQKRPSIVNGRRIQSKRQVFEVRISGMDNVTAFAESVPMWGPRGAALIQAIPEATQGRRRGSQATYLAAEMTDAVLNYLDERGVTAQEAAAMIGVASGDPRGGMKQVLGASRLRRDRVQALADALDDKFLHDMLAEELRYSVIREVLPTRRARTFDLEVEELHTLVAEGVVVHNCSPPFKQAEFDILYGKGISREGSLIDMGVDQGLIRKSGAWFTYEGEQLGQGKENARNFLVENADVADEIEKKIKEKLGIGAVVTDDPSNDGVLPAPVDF

Genome polyprotein = Genome polyprotein (dengue virus type 2, UniProt P29990); experiment: flavivirus cap methylation enzyme inhibition – biochemical, confirmation dose response, primary screen (AID 588689); format: functional
Sequence of Genome polyprotein (P29990 2492-3391 limits assumed): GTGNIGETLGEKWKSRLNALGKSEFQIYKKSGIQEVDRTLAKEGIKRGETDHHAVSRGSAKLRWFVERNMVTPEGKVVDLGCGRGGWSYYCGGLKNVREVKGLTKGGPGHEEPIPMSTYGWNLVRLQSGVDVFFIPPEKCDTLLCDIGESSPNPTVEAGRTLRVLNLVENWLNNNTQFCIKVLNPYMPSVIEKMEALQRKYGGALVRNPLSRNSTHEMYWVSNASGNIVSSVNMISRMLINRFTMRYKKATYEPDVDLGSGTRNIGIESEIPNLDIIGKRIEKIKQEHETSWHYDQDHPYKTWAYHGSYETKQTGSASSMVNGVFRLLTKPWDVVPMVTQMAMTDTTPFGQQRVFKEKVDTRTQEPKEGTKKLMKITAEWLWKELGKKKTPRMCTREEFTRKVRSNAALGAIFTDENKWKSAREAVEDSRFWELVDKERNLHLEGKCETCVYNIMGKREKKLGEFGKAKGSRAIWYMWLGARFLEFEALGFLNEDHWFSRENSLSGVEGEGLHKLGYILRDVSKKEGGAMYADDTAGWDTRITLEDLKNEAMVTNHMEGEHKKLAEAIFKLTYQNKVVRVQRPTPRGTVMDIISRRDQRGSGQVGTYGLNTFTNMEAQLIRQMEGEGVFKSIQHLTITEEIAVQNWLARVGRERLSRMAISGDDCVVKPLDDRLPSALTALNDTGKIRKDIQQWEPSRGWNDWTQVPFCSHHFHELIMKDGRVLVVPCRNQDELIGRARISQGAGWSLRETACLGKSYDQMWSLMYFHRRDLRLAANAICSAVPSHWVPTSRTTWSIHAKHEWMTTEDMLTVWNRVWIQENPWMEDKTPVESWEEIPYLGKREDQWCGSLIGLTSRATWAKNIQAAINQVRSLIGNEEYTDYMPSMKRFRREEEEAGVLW

[8] = biological target: T4, Polyadenylate-binding protein 1 (Homo sapiens, UniProt P11940); experiment: MLLE binding blockers, Cy5 peptide tracer – biochemical, fluorescence polarization, Cy5-PAM2 peptide, secondary, miRNA deadenylation inhibitor project, dose response (AID 602260); format: functional; settings: read-out: IC50_Mean
T4 sequence (P11940 whole entry, the tested form may be a part): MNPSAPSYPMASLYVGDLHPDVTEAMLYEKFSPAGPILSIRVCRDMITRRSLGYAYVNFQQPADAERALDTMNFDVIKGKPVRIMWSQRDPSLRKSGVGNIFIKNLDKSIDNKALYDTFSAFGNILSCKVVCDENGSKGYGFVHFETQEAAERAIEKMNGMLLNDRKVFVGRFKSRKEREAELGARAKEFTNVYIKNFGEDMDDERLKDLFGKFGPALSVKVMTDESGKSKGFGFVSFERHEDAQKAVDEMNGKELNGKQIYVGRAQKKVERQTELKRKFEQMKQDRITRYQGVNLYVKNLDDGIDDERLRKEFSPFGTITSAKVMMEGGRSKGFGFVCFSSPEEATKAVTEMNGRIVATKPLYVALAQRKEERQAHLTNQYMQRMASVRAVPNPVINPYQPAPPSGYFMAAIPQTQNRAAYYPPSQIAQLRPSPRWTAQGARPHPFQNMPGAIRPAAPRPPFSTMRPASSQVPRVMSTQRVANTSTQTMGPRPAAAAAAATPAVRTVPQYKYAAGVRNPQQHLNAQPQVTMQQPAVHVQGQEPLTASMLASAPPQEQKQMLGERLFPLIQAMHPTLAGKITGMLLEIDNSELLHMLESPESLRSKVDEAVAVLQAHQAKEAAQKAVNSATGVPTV

[9] = biological target: T4, Polyadenylate-binding protein 1; experiment: MLLE domain peptide-binding blockers, IC50 – biochemical, fluorescence polarization, FITC-PAM2 peptide, dose response (AID 602259); format: functional; settings: read-out: IC50_Mean
[10] = biological target: T5, Tyrosyl-DNA phosphodiesterase 2 (Homo sapiens, UniProt O95551); experiment: potency against TDP2 phosphodiesterase activity – biochemical, epi absorbance, IC50, dose response (AID 743297)
T5 sequence (O95551 whole entry): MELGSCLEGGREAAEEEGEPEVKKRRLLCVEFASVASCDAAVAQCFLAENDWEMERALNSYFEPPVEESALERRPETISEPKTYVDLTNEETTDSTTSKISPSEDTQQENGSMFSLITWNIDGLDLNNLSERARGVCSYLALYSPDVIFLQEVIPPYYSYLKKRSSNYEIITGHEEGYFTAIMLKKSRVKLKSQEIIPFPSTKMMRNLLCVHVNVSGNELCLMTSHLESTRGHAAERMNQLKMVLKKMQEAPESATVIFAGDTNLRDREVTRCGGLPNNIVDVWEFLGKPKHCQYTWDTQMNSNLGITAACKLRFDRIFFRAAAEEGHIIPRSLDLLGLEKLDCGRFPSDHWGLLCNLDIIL

In the case of O=C(O)c1cc(/C=C/c2ccc(N3CCOCC3)cc2)nc2ccccc12, the AC50 (HEK293) is reported as 3.14 µM (active), the IC50 (cells) is reported as > 67.5 µM (inactive) and the IC50 [1] is reported as > 67.5 µM (inactive).
For CC(=O)Oc1ccc2c(=O)c(-c3nc4ccccc4s3)coc2c1, the EC50 [2] was > 150 µM (inactive), the EC50 [3] was 3.08 µM (active) and the EC50 [4] was 3.63 µM (active). For the same compound, the EC50 [5] was 3.83 µM (active), the AC50 [6] was 6.27 µM (active) and the IC50 (cells) was > 67.5 µM (inactive). For the same compound, the IC50 [1] was > 67.5 µM (inactive).
In the case of CCOCC(=O)NC1CCc2cc(OC(=O)COCC)c(OC)c(OC)c2-c2ccc(SC)c(=O)cc21 (centres undefined), the IC50 (cells) is reported as > 67.5 µM (inactive), the IC50 [1] is reported as 0.244 µM (active) and the AC50 (Paired box protein Pax-8) is reported as < 0.26 µM (active).
For Cc1[nH]n(-c2ccccc2)c(=O)c1C(c1ccc(C(=O)O)cc1)c1c(C)[nH]n(-c2ccccc2)c1=O, the AC50 [7] was 0.915 µM (active), the EC50 (Protein RecA) was 0.656 µM (active) and the IC50 (Genome polyprotein) was 20.9 µM (active). The IC50 [8] was > 66 µM (inactive), the IC50 [9] was > 66 µM (inactive) and the IC50 [10] was > 0.528 µM (active).
